In patent publication US11708360B2, “N-substituted-dioxocyclobutenylamino-3-hydroxy-picolinamides useful as CCR6 inhibitors” (Pfizer Inc., priority 2018, dated 2023):
Where two headings read alike, the source gives them in different places.

Assays:
CCR6 = biological target: T1, CCR6 (Homo sapiens, UniProt P51684); assay: CCR6+ T Cell Chemotaxis Assay; format: cell-based; details: for T Cell Chemotaxis Selectivity: Table 13, T cell chemotaxis compared to neutrophil chemotaxis, NS = not selective for T cell chemotaxis compared to neutrophil chemotaxis
T1 construct: Human CD4+CCR6+CXCR3-T cells were isolated from leukopak from healthy donors; endogenous in cells
T1 sequence (P51684 1-374): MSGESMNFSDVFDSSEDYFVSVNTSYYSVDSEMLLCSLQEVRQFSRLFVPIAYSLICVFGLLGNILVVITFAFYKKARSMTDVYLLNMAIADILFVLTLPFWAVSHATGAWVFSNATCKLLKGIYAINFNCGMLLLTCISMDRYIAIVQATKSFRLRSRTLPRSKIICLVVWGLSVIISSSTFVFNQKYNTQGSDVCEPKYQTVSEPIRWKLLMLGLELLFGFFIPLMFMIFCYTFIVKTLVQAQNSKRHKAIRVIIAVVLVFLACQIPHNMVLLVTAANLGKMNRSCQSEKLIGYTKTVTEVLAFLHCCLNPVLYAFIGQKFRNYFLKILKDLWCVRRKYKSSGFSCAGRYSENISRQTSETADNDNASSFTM
Description: Human CD4+CCR6+CXCR3-T cells were isolated from leukopak from healthy donors using EasySep™ Human Th17 Cell Enrichment Kit. […] Day 4 post activation, Dynabeads were removed from the culture. The activated T cells were maintained at 1-2×10^6 cells/mL for 15 days by feeding fresh growth media when needed.
For IC50 determination, the top and bottom of the chemotaxis chamber contained the same concentration of compound. DMSO was kept constant at 0.1% (v/v) in all wells. The final concentration of CCL20 (Peprotech 300-29A) in the bottom chamber is 0.5 nM. The fully assembled chemotaxis plate was placed in a cell culture incubator at 37° C., 5% CO2 for 1 h. After incubation, the top filter was removed, followed by a quick freeze of the bottom chamber at −80° C. for 1 h. The migrated cells in the bottom chamber were stained with CyQUANT dye (Life Technologies, C7026) for cell number determination.
IC50 values for compounds of the present invention (Table 11) were determined by the non-linear regression analysis of dose response curves.

CXCR2 = biological target: T2, CXCR2 (Homo sapiens, UniProt P25025); assay: Human Neutrophil Chemotaxis Assay; format: cell-based; parameters: Human neutrophils were purified from freshly drawn human whole blood; endogenous in cells; host or cells: primary human neutrophils from fresh whole blood
T2 sequence (P25025 1-360): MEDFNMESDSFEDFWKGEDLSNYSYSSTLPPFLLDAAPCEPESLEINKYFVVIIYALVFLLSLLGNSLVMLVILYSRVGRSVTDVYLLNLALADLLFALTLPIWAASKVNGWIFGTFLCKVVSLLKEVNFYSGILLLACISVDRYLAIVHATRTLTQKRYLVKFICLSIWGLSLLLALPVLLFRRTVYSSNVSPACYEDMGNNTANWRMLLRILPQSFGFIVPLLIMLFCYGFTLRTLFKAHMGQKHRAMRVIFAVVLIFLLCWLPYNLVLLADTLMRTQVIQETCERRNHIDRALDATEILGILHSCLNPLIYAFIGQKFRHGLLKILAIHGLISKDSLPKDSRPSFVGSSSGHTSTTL
Procedure: After 30 min, the labeled neutrophils were washed twice in chemotaxis buffer, resuspended as before and used immediately. For the assay, test compounds were tested in a dose-response format to determine IC50. Labeled neutrophils (50 μL) were pre-incubated with diluted test compound (50 μL) for 30 min in a 96-well plate (Greiner). Next, 100 μL of diluted compound was mixed with 100 μL of GROα (Peprotech #300-11, 2 nM) in the bottom portion of the chemotaxis chamber. The top portion (insert) of the chemotaxis system containing the FluoroBlok porous membrane was then assembled together. 50 μL of the pre-incubated neutrophils were added to the FluoroBlok insert (top portion) and chemotaxis measured by the neutrophils ability to migrate through the membrane towards the specific CXCR2 ligand, GROα.
IC50 values for compounds of the present invention (Table 12) were determined by the non-linear regression analysis of dose response curves.

[1] = Table 11, human CD4+CCR6+CXCR3- T cells, CCL20 0.5 nM in bottom chamber, 1 h at 37° C., read-out: IC50
[2] = Table 12, human neutrophils migrating towards the CXCR2 ligand GROα, read-out: IC50

| Structure (SMILES) | IC50 (CCR6; [1]) [nM] | T Cell Chemotaxis Selectivity (CCR6) | IC50 (CXCR2; [2]) [nM] | further results |
| --- | --- | --- | --- | --- |
| Cc1cn(C)nc1[C@H](Nc1c(Nc2ccnc(C(=O)N(C)C)c2O)c(=O)c1=O)C1(C)CCCC1 [Example 1, (R)-4-((2-(((1,4-Dimethyl-1H-pyrazol-3-yl)(1-methylcyclopentyl)methyl)amino)-3,4-dioxocyclobut-1-en-1-yl)amino)-3-hydroxy-N,N-dimethylpicolinamide] | 5.8 | – | 524 | IC50 (CCR6; Table 14, R = CH3, read-out: R = CH3, IC50 (nM) CCR6 T cell, CCL20 Chemotaxis): 5.8 nM; IC50 (CXCR2; Table 14, R = CH3, read-out: R = CH3, IC50 (nM) CXCR2 Neutrophil, GROα Chemotaxis): 524 nM |
| Cc1cn(C)nc1[C@@H](Nc1c(Nc2ccnc(C(=O)N(C)C)c2O)c(=O)c1=O)C1(C)CCCC1 [Example 2, (S)-4-((2-(((1,4-Dimethyl-1H-pyrazol-3-yl)(1-methylcyclopentyl)methyl)amino)-3,4-dioxocyclobut-1-en-1-yl)amino)-3-hydroxy-N,N-dimethylpicolinamide] | 186 | – | 7310 | – |
| Cc1cn(C)nc1[C@H](Nc1c(Nc2ccnc(C(=O)N(C)C(C)C)c2O)c(=O)c1=O)C1(C)CCCC1 [Example 3, (R)-4-((2-(((1,4-Dimethyl-1H-pyrazol-3-yl)(1-methylcyclopentyl)methyl)amino)-3,4-dioxocyclobut-1-en-1-yl)amino)-3-hydroxy-N-isopropyl-N-methylpicolinamide] | 2.3 | 665 | 1530 | – |
| CCN(C)C(=O)c1nccc(Nc2c(N[C@@H](c3nn(C)cc3C)C3(C)CCCC3)c(=O)c2=O)c1O [Example 4, (R)-4-((2-(((1,4-Dimethyl-1H-pyrazol-3-yl)(1-methylcyclopentyl)methyl)amino)-3,4-dioxocyclobut-1-en-1-yl)amino)-N-ethyl-3-hydroxy-N-methylpicolinamide] | 6.3 | 140 | 886 | – |
| CCN(C)C(=O)c1nccc(Nc2c(N[C@H](c3nn(C)cc3C)C3(C)CCCC3)c(=O)c2=O)c1O [Example 5, (S)-4-((2-(((1,4-Dimethyl-1H-pyrazol-3-yl)(1-methylcyclopentyl)methyl)amino)-3,4-dioxocyclobut-1-en-1-yl)amino)-N-ethyl-3-hydroxy-N-methylpicolinamide] | 922 | – | – | – |
| Cc1cn(C)nc1[C@H](Nc1c(Nc2ccnc(C(=O)N3CCOCC3)c2O)c(=O)c1=O)C1(C)CCCC1 [Example 6, (R)-3-(((1,4-dimethyl-1H-pyrazol-3-yl)(1-methylcyclopentyl)methyl)amino)-4-((3-hydroxy-2-(morpholine-4-carbonyl)pyridin-4-yl)amino)cyclobut-3-ene-1,2-dione] | 11.6 | 51 | 586 | – |
| Cc1cn(C)nc1[C@H](Nc1c(Nc2ccnc(C(=O)N3CCN(C)CC3)c2O)c(=O)c1=O)C1(C)CCCC1 [Example 7, (R)-3-(((1,4-Dimethyl-1H-pyrazol-3-yl)(1-methylcyclopentyl)methyl)amino)-4-((3-hydroxy-2-(4-methylpiperazine-1-carbonyl)pyridin-4-yl)amino)cyclobut-3-ene-1,2-dione] | 29.8 | 72 | 2160 | – |
| CN(C)C(=O)c1nccc(Nc2c(N[C@@H](c3nn(C)cc3Cl)C3(C)CCCC3)c(=O)c2=O)c1O [Example 8, (R)-4-((2-(((4-Chloro-1-methyl-1H-pyrazol-3-yl)(1-methylcyclopentyl)methyl)amino)-3,4-dioxocyclobut-1-en-1-yl)amino)-3-hydroxy-N,N-dimethylpicolinamide] | 3 | 34 | 103 | – |
| CN(C)C(=O)c1nccc(Nc2c(N[C@H](c3nn(C)cc3Cl)C3(C)CCCC3)c(=O)c2=O)c1O [Example 9, (S)-4-((2-(((4-Chloro-1-methyl-1H-pyrazol-3-yl)(1-methylcyclopentyl)methyl)amino)-3,4-dioxocyclobut-1-en-1-yl)amino)-3-hydroxy-N,N-dimethylpicolinamide] | 59.7 | 46 | 2750 | – |
| CC(C)N(C)C(=O)c1nccc(Nc2c(N[C@@H](c3nn(C)cc3Cl)C3(C)CCCC3)c(=O)c2=O)c1O [Example 10, (R)-4-((2-(((4-Chloro-1-methyl-1H-pyrazol-3-yl)(1-methylcyclopentyl)methyl)amino)-3,4-dioxocyclobut-1-en-1-yl)amino)-3-hydroxy-N-isopropyl-N-methylpicolinamide] | 8.7 | 20 | 175 | – |
| COc1cn(C)nc1[C@H](Nc1c(Nc2ccnc(C(=O)N(C)C(C)C)c2O)c(=O)c1=O)C1(C)CCCC1 [Example 11, (R)-3-Hydroxy-N-isopropyl-4-((2-(((4-methoxy-1-methyl-1H-pyrazol-3-yl)(1-methyl-cyclopentyl)methyl)amino)-3,4-dioxocyclobut-1-en-1-yl)amino)-N-methylpicolinamide] | 1.9 | 110 | 210 | – |
| Cc1ccc([C@H](Nc2c(Nc3cccc(C(=O)N(C)C)c3O)c(=O)c2=O)C2(C)COC2)o1 [Example 50, reference compound] | – | – | – | IC50 (CXCR2; Table 17, WO 2013/061005 comparator compounds, read-out: IC50 (nM) CXCR2 Neutrophil, GROα Chemotaxis): 121 nM |
| CC[C@@H](Nc1c(Nc2ccnc(C(=O)N(C)C)c2O)c(=O)c1=O)c1cc(C(C)C)co1 [Example 112, reference compound] | – | – | – | IC50 (CXCR2; Table 15, WO 2010/131145 comparator compounds, read-out: IC50 (nM) CXCR2 Neutrophil, GROα Chemotaxis): 23.2 nM |

More lines, main results first:

| IC50 (CCR6; [1]) [nM] | T Cell Chemotaxis Selectivity (CCR6) | IC50 (CXCR2; [2]) [nM] | Structure (SMILES) | further results |
| --- | --- | --- | --- | --- |
| 5.9 | 535 | 3160 | Cc1cn(C)nc1[C@H](Nc1c(Nc2ccnc(C(=O)N(C)C)c2O)c(=O)c1=O)C1(C)CC2(CC2)C1 (single isomer, unassigned) [Example 17] | – |
| 24 | 104 | 2510 | Cc1nc([C@H](Nc2c(Nc3ccnc(C(=O)N(C)C)c3O)c(=O)c2=O)C2(C)CCCC2)c(C)o1 (single isomer, unassigned) [Example 34] | R = CH3, T Cell Chemotaxis Selectivity (CCR6; Table 14, R = CH3): 104 |
| 30 | 8 | 255 | CCC1([C@@H](Nc2c(Nc3ccnc(C(=O)N(C)C)c3O)c(=O)c2=O)c2nn(C)cc2C)CCC1 (single isomer, unassigned) [Example 35] | – |
| 32.3 | 220 | 7130 | Cc1cn(C)nc1[C@H](Nc1c(Nc2ccnc(C(=O)N(C)C)c2O)c(=O)c1=O)[C@]1(C)CC(F)(F)CO1 (single isomer, unassigned) [Example 36] | – |
| 6.5 | – | 502 | [2H]C([2H])([2H])c1cn(C)nc1[C@H](Nc1c(Nc2ccnc(C(=O)N(C)C)c2O)c(=O)c1=O)C1(C)CCCC1 (single isomer, unassigned) [Example 39] | – |
| 1.7 | 63 | 107 | COc1cn(C)nc1[C@H](Nc1c(Nc2ccnc(C(=O)N(C)C)c2O)c(=O)c1=O)C1(C)CCCC1 [Example 12, (R)-3-Hydroxy-4-((2-(((4-methoxy-1-methyl-1H-pyrazol-3-yl)(1-methylcyclopentyl)methyl)amino)-3,4-dioxocyclobut-1-en-1-yl)amino)-N,N-dimethylpicolinamide] | – |
